Reference: patent US5922689A, “Cisplatin analogs for cancer treatment” (Unitech Pharmaceuticals, Inc., priority 1997, dated 1999)

How the values were obtained:
[1] = system: MCF-7 breast cancer cells; assay: Side-by-side growth assay versus cisplatin, MCF-7, Example 6; assay type: cell-based, human; conditions: for MCF-7 cell count: untreated 2.96 × 10^6
Method: (§1) Growth Assay: plate individual cells (human breast cancer cells MCF-7, and MDA-MB-231) at 10^4 cells/mL, 1-mL/well in MEM-10 (MEM+10% FBS, where FBS is fetal Bovine Serum) with 1/100 Penicillin/Strep. Add 1/100 volume of the above Test Solution (10 μL/mL) to triplicate wells. MCF-7 also requires 10 μg/mL insulin; MDA-MB-231 requires no insulin. Incubate cell cultures at 37° C. for 6 days and count the number of cells.
(§2) side-by-side comparison of cis-[Pt(NH3)2 PtCl(Guanosine)]Cl and cisplatin (performed by Biotherapies Incorporated of Ann Arbor, Mich.)
(§3) Test Solutions: Test solutions were prepared in the same manner as in Example 5, except, additional test solution was prepared employing cisplatin.
(§4) Growth Assay: The same method in Example 5 was used. However, the cells studied were normal human mammary cells and breast cancer cells, MCF-7.

[2] = system: normal human mammary cells; assay: Side-by-side growth assay versus cisplatin, normal human mammary cells, Example 6; assay type: cell-based; conditions: for cell count, normal human mammary cells: untreated 1.00 × 10^5; for % inhibition: normal human mammary cells
Method: as §1, §2, §3, §4

[3] = system: human breast cancer cells MCF-7; assay: In-vitro growth assay (cell count after 6 days), MCF-7, Example 5; assay type: cell-based; conditions: 37° C.; for MCF-7 cell count / % inhibition: 6 days; for MCF-7 cell count: untreated 6.70 × 10^5
Method: (§5) In-vitro inhibition of cancer cells by cis-[(NH3)2 PtCl(Guanosine)]Cl (performed by Biotherapies Incorporated, Ann Arbor, Mich.)
as §1

[4] = system: human breast cancer cells MDA-MB-231; assay: In-vitro growth assay (cell count after 6 days), MDA-MB-231, Example 5; assay type: cell-based; conditions: 37° C.; for MDA cell count / % inhibition: 6 days; for MDA cell count: untreated 4.00 × 10^5
Method: as §5, §1

[5] = 0.012 mg/mL (4.00 × 10^-5 mmole/mL)
[6] = cisplatin 0.025 mg/mL (8.33 × 10^-5 mmole/mL)
[7] = 0.00025 mg/mL (4.29 × 10^-7 mmole/mL)
[8] = 0.0025 mg/mL (4.29 × 10^-6 mmole/mL)
[9] = 0.025 mg/mL (4.29 × 10^-5 mmole/mL)
[10] = 0.05 mg/mL (8.57 × 10^-5 mmole/mL)
[11] = #95001 0.025 mg/mL (4.29 × 10^-5 mmole/mL)

N.N.[Cl][Pt][Cl] [cisplatin, cis-diamminedichloroplatinum]
MCF-7 cell count [1, 5]: 5.00 × 10^3
% inhibition ([1]; MCF-7, 0.012 mg/mL (4.00 × 10^-5 mmole/mL)): 99.8%
% inhibition ([1]; MCF-7, cisplatin 0.025 mg/mL (8.33 × 10^-5 mmole/mL)): 99.9%
MCF-7 cell count [1, 6]: 5.00 × 10^3
cell count, normal human mammary cells [2, 5]: 1.00 × 10^4
cell count, normal human mammary cells [2, 6]: 3.30 × 10^3
% inhibition [2, 5]: 90.0%
% inhibition [2, 6]: 99.0%

cis-diamminechloroguanosineplatinum chloride [cis-[Pt(NH3)2 Cl(Guanosine)]Cl]
MCF-7 cell count [3, 7]: 6.10 × 10^5
MCF-7 cell count [3, 8]: 5.00 × 10^4
MCF-7 cell count [3, 9]: 1.00 × 10^4
% inhibition ([3]; MCF-7, 0.00025 mg/mL (4.29 × 10^-7 mmole/mL)): 9.0%
% inhibition ([3]; MCF-7, 0.0025 mg/mL (4.29 × 10^-6 mmole/mL)): 92.5%
% inhibition ([3]; MCF-7, 0.025 mg/mL (4.29 × 10^-5 mmole/mL)): 98.5%
inhibition of cell growth (in words) ([3]; MCF-7, 6 days): able to inhibit the cell growth
MCF-7 cell count [1, 10]: 6.70 × 10^3
MCF-7 cell count [1, 11]: 3.30 × 10^3
% inhibition ([1]; MCF-7, 0.05 mg/mL (8.57 × 10^-5 mmole/mL)): 99.8%
% inhibition ([1]; MCF-7, #95001 0.025 mg/mL (4.29 × 10^-5 mmole/mL)): 97.6%
effectiveness in killing MCF-7 cells versus cisplatin (in words) ([1]; ca. 8×10-5 mmole/mL): as effective as cisplatin in killing MCF-7 cells
cell count, normal human mammary cells [2, 10]: 4.50 × 10^4
cell count, normal human mammary cells [2, 11]: 9.30 × 10^4
toxicity to normal human mammary cells versus cisplatin (in words) ([2]; ca. 8×10-5 mmole/mL): lower than cisplatin
% inhibition [2, 10]: 55.0%
% inhibition [2, 11]: 7.0%
MDA cell count [4, 7]: 3.55 × 10^5
MDA cell count [4, 8]: 5.00 × 10^4
MDA cell count [4, 9]: 1.00 × 10^4
% inhibition ([4]; MDA-MB-231, 0.00025 mg/mL (4.29 × 10^-7 mmole/mL)): 11.3%
% inhibition ([4]; MDA-MB-231, 0.0025 mg/mL (4.29 × 10^-6 mmole/mL)): 87.5%
% inhibition ([4]; MDA-MB-231, 0.025 mg/mL (4.29 × 10^-5 mmole/mL)): 97.5%
inhibition of cell growth (in words) ([4]; MDA-MB-231, 6 days): able to inhibit the cell growth
